Experimental data published in US7555415B2, “Methods for the design of estrogen receptor ligands” (Wyeth, priority 2005, dated 2009).

How the values were obtained:
[1] = test system: Adjuvant Induced Arthritis (AIA); experiment: Adjuvant-induced arthritis: histological scoring of cartilage changes (Mankin score) in tarsal joints; format: in vivo, Lewis rats; conditions: for Cartilage Cells (0-3) / Cartilage Structure (0-6) / Saffranin-O/Fast Green Staining (0-4) / Total Mankin Score (0-14): means ± SD
Procedure: (§1) Forty-two male, 8-10 weeks old, Lewis rats were housed according to standard facility operating procedures. They received a standard regimen of food and water ad libitum. Each animal was identified by a cage card indicating the project group and animal number. Each rat number was marked by indelible ink marker on the tail. Freund's Adjuvant-Complete (Sigma Immuno Chemicals, St. Louis, Mo.) was used to induce arthritis. Each mL contained 1 mg Mycobacterium tuberculosis heat killed and dried, 0.85 mL mineral oil and 0.15 mL mannide monooleate (Lot No. 084H8800).
(§2) The rats were injected intradermally with 0.1 mL of Freund's Adjuvant-Complete at the base of the tail. The animals were randomized to […], each group containing six rats. The groups received vehicle (2% Tween 80, 0.5% methylcellulose), or the Compound 2 compound at 1.0 mg/kg, 0.3 mg/kg, or 0.1 mg/kg orally each day. The rats began treatment on Day 8 after adjuvant injection.
(§3) At the end of the study the rats were euthanized with CO2, hindlimbs were removed at necropsy and fixed in 10% buffered formalin, and the tarsal joints were decalcified and embedded in paraffin. Histologic sections were stained with Hemotoxylin and Eosin or Saffranin O-Fast Green stain.
(§4) Slides were coded so that the examiner was blind to the treatment groups. Synovial tissue from tarsal joints were evaluated based on synovial hyperplasia, inflammatory cell infiltration, and pannus formation (see Table 4). Articular cartilage and bone was evaluated using Mankin's histological grading system. Biochemical and metabolic abnormalities in articular cartilage was assessed as from osteoarthritic human hip (see J. Bone Joint Surg (AM) 53A:152-153) (Table 5).

[2] = test system: Adjuvant Induced Arthritis (AIA); experiment: Adjuvant-induced arthritis: histological scoring of synovitis in tarsal joints; format: in vivo, Lewis rats; conditions: for Fibroplasia (0-3) / Inflammatory Cells (0-3) / Pannus (0-2) / Synovial Structure (0-3) / Total Synovitis Score (0-10): means ± SD
Procedure: Rats were injected with Complete Freund's Adjuvant (CFA), and synovitis in the tarsal joints was monitored.
as §1, §2, §3, §4

[3] = test system: Collagen Induced Arthritis; experiment: Collagen induced arthritis model (anti-type II collagen mAbs plus LPS): hind paw edema; format: in vivo; conditions: BALB/c mice, 2.5 mg/kg orally once daily, over the course of the experiment
Procedure: Compound 2 was evaluated in BALB/c mice, 6-8 weeks of age, in which arthritis was induced by monoclonal antibodies raised against type II collagen, plus lipopolysaccharide (LPS). The animals were administered intravenously with a combination of four different mAbs totaling 4 mg/mouse on day 0, and followed by intravenous administration of […] of LPS 72 hours later (day 3). From day 3, one hour after LPS application, tested compounds were given orally once daily for 15 days. For each animal, an increase in volume of both hind paws was measured using a plethysmometer with water cell (12 mm diameter) on days 0, 5, 7, 10, 14 and 17. Percent inhibition of increase in volume was calculated. Reduction of edema in the hind paws by 30% or more was considered significant.

[4] = test system: Adjuvant Induced Arthritis (AIA); experiment: Adjuvant Induced Arthritis: daily arthritis severity / paw swelling score; format: in vivo, Lewis rats
[5] = Compound 2, 0.1 mg/kg orally for 2 weeks from day 8 after CFA
[6] = Compound 2, 0.3 mg/kg orally for 2 weeks from day 8 after CFA
[7] = Compound 2, 1 mg/kg orally for 2 weeks from day 8 after CFA
[8] = all concentrations tested (down to 0.1 mg/kg)

C[C@@H]1c2cc(F)ccc2-c2ccccc2N1S(=O)(=O)c1ccc(O)cc1 [Compound 2, 4-[(8-Fluoro-6-methylphenanthridin-5(6H)-yl)sulfonyl]phenol]
Tidemark Integrity (0-1) [1, 5]: 0 | Cartilage Cells (0-3) [1, 5]: 1.92 ± 0.21 | Cartilage Structure (0-6) [1, 5]: 2.33 ± 0.68 | Saffranin-O/Fast Green Staining (0-4) [1, 5]: 2.42 ± 0.67 | Total Mankin Score (0-14) [1, 5]: 6.83 ± 1.25 | Tidemark Integrity (0-1) [1, 6]: 0 | Cartilage Cells (0-3) [1, 6]: 1.50 ± 0.32 | Cartilage Structure (0-6) [1, 6]: 1.75 ± 0.42 | Saffranin-O/Fast Green Staining (0-4) [1, 6]: 2.17 ± 0.26 | Total Mankin Score (0-14) [1, 6]: 5.42 ± 0.74*t | Tidemark Integrity (0-1) [1, 7]: 0 | Cartilage Cells (0-3) [1, 7]: 1.17 ± 0.26*t | Cartilage Structure (0-6) [1, 7]: 1.25 ± 0.27 | Saffranin-O/Fast Green Staining (0-4) [1, 7]: 2.17 ± 0.26 | Total Mankin Score (0-14) [1, 7]: 4.58 ± 0.74*t | Overall cartilage score [1, 8]: significantly improved | Fibroplasia (0-3) [2, 5]: 1.75 ± 0.42 | Inflammatory Cells (0-3) [2, 5]: 1.83 ± 0.52 | Pannus (0-2) [2, 5]: 1.50 ± 0.84 | Synovial Structure (0-3) [2, 5]: 2.33 ± 0.75 | Total Synovitis Score (0-10) [2, 5]: 7.42 ± 2.25 | Fibroplasia (0-3) [2, 6]: 1.67 ± 0.26*t | Inflammatory Cells (0-3) [2, 6]: 1.25 ± 0.27 | Pannus (0-2) [2, 6]: 0.50 ± 0.84 | Synovial Structure (0-3) [2, 6]: 1.58 ± 0.38 | Total Synovitis Score (0-10) [2, 6]: 5.00 ± 1.30*#t | Fibroplasia (0-3) [2, 7]: 1.33 ± 0.41*t | Inflammatory Cells (0-3) [2, 7]: 1.17 ± 0.26 | Pannus (0-2) [2, 7]: 0.25 ± 0.42 | Synovial Structure (0-3) [2, 7]: 1.42 ± 0.38 | Total Synovitis Score (0-10) [2, 7]: 4.17 ± 1.21*#t | Overall synovitis score [2, 8]: significantly improved | Inhibition of paw edema [3]: > 30% | Paw swelling score (maximal score per day 12) ([4]; 0.3 mg/kg (first column so headed, c3) orally each day from Day 8, Day 8): 11.5 | Paw swelling score (maximal score per day 12) ([4]; 0.3 mg/kg (first column so headed, c3) orally each day from Day 8, Day 9): 9.8 | Paw swelling score (maximal score per day 12) ([4]; 0.3 mg/kg (first column so headed, c3) orally each day from Day 8, Day 10): 7.3 | Paw swelling score (maximal score per day 12) ([4]; 0.3 mg/kg (first column so headed, c3) orally each day from Day 8, Day 11): 7 | Paw swelling score (maximal score per day 12) ([4]; 0.3 mg/kg (first column so headed, c3) orally each day from Day 8, Day 12): 6.7 | Paw swelling score (maximal score per day 12) ([4]; 0.3 mg/kg (first column so headed, c3) orally each day from Day 8, Day 13): 3.7 | Paw swelling score (maximal score per day 12) ([4]; 0.3 mg/kg (first column so headed, c3) orally each day from Day 8, Day 14): 3 | Paw swelling score (maximal score per day 12) ([4]; 0.3 mg/kg (first column so headed, c3) orally each day from Day 8, Day 15): 3.7 | Paw swelling score (maximal score per day 12) ([4]; 0.3 mg/kg (first column so headed, c3) orally each day from Day 8, Day 16): 2.3 | Paw swelling score (maximal score per day 12) ([4]; 0.3 mg/kg (first column so headed, c3) orally each day from Day 8, Day 17): 2.3 | Paw swelling score (maximal score per day 12) ([4]; 0.3 mg/kg (first column so headed, c3) orally each day from Day 8, Day 18): 2.3 | Paw swelling score (maximal score per day 12) ([4]; 0.3 mg/kg (first column so headed, c3) orally each day from Day 8, Day 19): 2 | Paw swelling score (maximal score per day 12) ([4]; 0.3 mg/kg (first column so headed, c3) orally each day from Day 8, Day 20): 2 | Paw swelling score (maximal score per day 12) ([4]; 0.3 mg/kg (first column so headed, c3) orally each day from Day 8, Day 21): 1.7 | Paw swelling score (maximal score per day 12) ([4]; 0.3 mg/kg (first column so headed, c3) orally each day from Day 8, Day 22): 1.7 | Paw swelling score (maximal score per day 12) ([4]; 0.3 mg/kg (first column so headed, c3) orally each day from Day 8, Day 23): 1 | Paw swelling score (maximal score per day 12) ([4]; 0.3 mg/kg (first column so headed, c3) orally each day from Day 8, Day 24): 1.3 | Paw swelling score (maximal score per day 12) ([4]; 0.3 mg/kg (second column so headed, c4) orally each day from Day 8, Day 8): 11.3 | Paw swelling score (maximal score per day 12) ([4]; 0.3 mg/kg (second column so headed, c4) orally each day from Day 8, Day 9): 10.7 | Paw swelling score (maximal score per day 12) ([4]; 0.3 mg/kg (second column so headed, c4) orally each day from Day 8, Day 10): 9.3 | Paw swelling score (maximal score per day 12) ([4]; 0.3 mg/kg (second column so headed, c4) orally each day from Day 8, Day 11): 9.7 | Paw swelling score (maximal score per day 12) ([4]; 0.3 mg/kg (second column so headed, c4) orally each day from Day 8, Day 12): 10 | Paw swelling score (maximal score per day 12) ([4]; 0.3 mg/kg (second column so headed, c4) orally each day from Day 8, Day 13): 4.2 | Paw swelling score (maximal score per day 12) ([4]; 0.3 mg/kg (second column so headed, c4) orally each day from Day 8, Day 14): 3.5 | Paw swelling score (maximal score per day 12) ([4]; 0.3 mg/kg (second column so headed, c4) orally each day from Day 8, Day 15): 3.5 | Paw swelling score (maximal score per day 12) ([4]; 0.3 mg/kg (second column so headed, c4) orally each day from Day 8, Day 16): 3.3 | Paw swelling score (maximal score per day 12) ([4]; 0.3 mg/kg (second column so headed, c4) orally each day from Day 8, Day 17): 3.3 | Paw swelling score (maximal score per day 12) ([4]; 0.3 mg/kg (second column so headed, c4) orally each day from Day 8, Day 18): 3.3 | Paw swelling score (maximal score per day 12) ([4]; 0.3 mg/kg (second column so headed, c4) orally each day from Day 8, Day 19): 3 | Paw swelling score (maximal score per day 12) ([4]; 0.3 mg/kg (second column so headed, c4) orally each day from Day 8, Day 20): 2.8 | Paw swelling score (maximal score per day 12) ([4]; 0.3 mg/kg (second column so headed, c4) orally each day from Day 8, Day 21): 2.5 | Paw swelling score (maximal score per day 12) ([4]; 0.3 mg/kg (second column so headed, c4) orally each day from Day 8, Day 22): 2.5 | Paw swelling score (maximal score per day 12) ([4]; 0.3 mg/kg (second column so headed, c4) orally each day from Day 8, Day 23): 1.2 | Paw swelling score (maximal score per day 12) ([4]; 0.3 mg/kg (second column so headed, c4) orally each day from Day 8, Day 24): 1.3 | Paw swelling score (maximal score per day 12) ([4]; 1 mg/kg orally each day from Day 8, Day 8): 11.3 | Paw swelling score (maximal score per day 12) ([4]; 1 mg/kg orally each day from Day 8, Day 9): 8.8 | Paw swelling score (maximal score per day 12) ([4]; 1 mg/kg orally each day from Day 8, Day 10): 7 | Paw swelling score (maximal score per day 12) ([4]; 1 mg/kg orally each day from Day 8, Day 11): 6 | Paw swelling score (maximal score per day 12) ([4]; 1 mg/kg orally each day from Day 8, Day 12): 5 | Paw swelling score (maximal score per day 12) ([4]; 1 mg/kg orally each day from Day 8, Day 13): 1.7 | Paw swelling score (maximal score per day 12) ([4]; 1 mg/kg orally each day from Day 8, Day 14): 1.3 | Paw swelling score (maximal score per day 12) ([4]; 1 mg/kg orally each day from Day 8, Day 15): 1.3 | Paw swelling score (maximal score per day 12) ([4]; 1 mg/kg orally each day from Day 8, Day 16): 1.2 | Paw swelling score (maximal score per day 12) ([4]; 1 mg/kg orally each day from Day 8, Day 17): 1.2 | Paw swelling score (maximal score per day 12) ([4]; 1 mg/kg orally each day from Day 8, Day 18): 1.2 | Paw swelling score (maximal score per day 12) ([4]; 1 mg/kg orally each day from Day 8, Day 19): 1.2 | Paw swelling score (maximal score per day 12) ([4]; 1 mg/kg orally each day from Day 8, Day 20): 1.2 | Paw swelling score (maximal score per day 12) ([4]; 1 mg/kg orally each day from Day 8, Day 21): 1.2 | Paw swelling score (maximal score per day 12) ([4]; 1 mg/kg orally each day from Day 8, Day 22): 1.2 | Paw swelling score (maximal score per day 12) ([4]; 1 mg/kg orally each day from Day 8, Day 23): 1 | Paw swelling score (maximal score per day 12) ([4]; 1 mg/kg orally each day from Day 8, Day 24): 0.8 | Paw swelling and redness (joint scores) ([4]; following treatment, there appeared to be a dose response): Decreases
